# Where two headings read alike, the source gives them in different places.
# Columns and labels:
# HRas wild type = test: Ras GTP binding domain inhibition assay (Cy3-GTP/Cy5-GTP competition); set-up: species or system human; conditions: at 20 μM; for HRAS wild type + SOS: % inh.: with SOS; for HRas wild type % inh.: without SOS
# Method in brief: (§1)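 Ni-plate immobilised His-Ras, overnight 4 °C; cpd 20 μM (or dilution series for IC50), 1% DMSO, 3 h RT; optional His-Sos […] last hour; Cy3- or Cy5-GTP 100 nM, 45 min RT; 3× wash; bound fluorescence read.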
# KRas G12D mutant = target: T1, KRas G12D mutant (Homo sapiens, UniProt P01116, G12D); test: as above; conditions: at 20 μM
# T1 construct: fused on or other part: His tag, used for capture on nickel-coated plates
# Method in brief: as §1
# Rho-A = Rho-A (Homo sapiens, UniProt P61586); test: as above; conditions: for Rho-A + SOS: % inh. / Rho-A: % inh.: at 20 μM
# Method in brief: (§2)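 First, His-tagged protein is coated on nickel wells overnight at 4 °C. Next, compound (20 μM single point or serial dilution) is added for 3 h at room temperature, with or without Sos exchange factor in the last hour. Finally, 100 nM labelled GTP binds for 45 min and retained signal is measured.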
# Rac-1 = Rac-1 (Homo sapiens, UniProt P63000); test: as above
# Method in brief: as §2
# AKT phosphorylation = test: Western AKT cell-based phosphorylation assay, PANC-1; conditions: Homo sapiens, 6 hours, EGF stimulation, PANC-1
# Method in brief: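 PANC-1 cells, serum-starved overnight in 0.5% FBS, were treated with compound at 10 μM (0.3% DMSO) for 6 h at 37 °C and then stimulated with 1.5 ng/ml EGF for 15 min. Lysates (15–50 μg) were immunoblotted for phospho-Akt Ser473, with ECL detection.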
# MAPK phosphorylation [1] = test: Western MAPK cell-based phosphorylation assay, BxPC3; conditions: Homo sapiens, BXPC-3, 10 μM, 6 hours, EGF stimulation
# Description: (§3) Cell lines: Human NSCLC cells NCI-H1975 and NCI-H1299, and tumor-derived pancreatic cancer cell lines Panc-1, MIA-PaCa-2, and BxPC3, were all purchased from American Type Culture Collection and grown in complete RPMI medium (BxPC3, NCI-H1975 and NCI-H1299) or DMEM-High Glucose (Panc1 and MIA-PaCa-2), supplemented with penicillin (100 U/mL), streptomycin (100 μg/mL), and 10% heat-inactivated FBS at 37° C. in a humidified incubator with 5% CO2.
# (§4) Method: Cells were plated at 350000 cells/well density in a 12-well plate, allowed 3 hours to adhere to the plate, then starved in the appropriate medium in the presence of 0.5% FBS overnight. The small molecules to be tested were added to the cells in the final concentration of 10 μM in the presence of 0.3% DMSO for 6 hours incubation at 37° C. For IC50 value determination, serial dilutions of compounds were added to cells under the same conditions. Next, cells were stimulated with 1.5 ng/ml EGF for 15 minutes then cells were lysed with lysis buffer containing 1% Triton X-100, EDTA, and Halt™ Protease & Phosphatase Inhibitor Cocktail (Thermo Scientific). Protein concentration was assessed by BCA protein assay (Thermo Scientific). Phosphorylation level of MAPK was determined by western blot.
# (§5) Western blot protocol: Equal amounts of protein (15-50 μg) were separated by SDS-PAGE and transferred to nitrocellulose membranes (Invitrogen by Thermo Fisher Scientific). The membrane was stained with Ponceau S Stain (Boston BioProducts) to verify uniform protein loading. Membranes were blocked with 10% milk and phosphorylation levels of MAPK were assessed by incubating overnight at 4° C. with anti-phospho-p44/42 (Thr202/Tyr204) antibody (Cell Signaling) followed by HRP-conjugated secondary antibody (Jackson Immunoresearch, West Grove, PA). Bands were incubated in Amersham ECL Prime Western Blotting Detection Reagent (GE Healthcare) and visualized using the ChemiDoc MP imaging system (Bio-Rad).
# MAPK phosphorylation [2] = test: MAPK cell-based phosphorylation assay (ELISA or Western), PANC-1; conditions: Homo sapiens; 10 μM, 6 hours, EGF stimulation, PANC-1
# Method in brief: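 Serum-starved (0.5% FBS overnight) cells given compound at 10 μM or serial dilutions (0.3% DMSO) for 6 h at 37 °C, then 1.5 ng/mL EGF for 15 min. Phospho-MAPK read by fixed-cell ELISA (fluorescence, 595 nm) or by Western blot of lysates with anti-phospho-p44/42 (Thr202/Tyr204).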
# MAPK phosphorylation [3] = test: Western MAPK cell-based phosphorylation assay, MIA PaCa-2; conditions: Homo sapiens, 10 μM, 6 hours, EGF stimulation
# Description: as §3, §4, §5
# TNF-α = test: Mouse TNF alpha quantification assay, LPS-stimulated RAW 264.7 macrophages; type: cell-based; conditions: RAW264.7, 10 μM, LPS (100 ng/ml) added concurrently, 5 hours, RAW 264.7, read-out: TNFα % Inhibition
# Method in brief: (§6)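 RAW 264.7 cells, serum-starved overnight (0.5% FBS), were pretreated with compounds at 30 μM (0.3% DMSO) for 3 h, then stimulated with LPS 100 ng/ml for 16 h at 37 °C; alternatively, 10 μM compound was added together with LPS for 5 h. Secreted TNF-α and IL-6 were quantified in supernatants by sandwich ELISA.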
# IL-6 = test: Mouse IL6 quantification assay, LPS-stimulated RAW 264.7 macrophages; type: cell-based; conditions: RAW264.7, 10 μM, LPS (100 ng/ml) added concurrently, 5 hours, RAW 264.7
# Method in brief: as §6
# [4] = with SOS, read-out: KRas G12D mutant + SOS: % inh.
# [5] = without SOS, read-out: KRas G12D mutant: % inh.
# [6] = with SOS, read-out: Rho-A + SOS: % inh.
# [7] = without SOS, read-out: Rho-A: % inh.
# [8] = with SOS, read-out: Rac-1 + SOS: % inh.
# [9] = without SOS, read-out: Rac-1: % inh.
Structure (SMILES),HRAS wild type + SOS: % inh. (HRas wild type),HRas wild type % inh. (HRas wild type),inhibition at 20 µM (KRas G12D mutant; [4]) [%],inhibition at 20 µM (KRas G12D mutant; [5]) [%],inhibition at 20 µM (Rho-A; [6]) [%],inhibition at 20 µM (Rho-A; [7]) [%],inhibition at 20 µM (Rac-1; [8]) [%],inhibition at 20 µM (Rac-1; [9]) [%],inhibition at 10 µM (TNF-α) [%],inhibition at 10 µM (IL-6) [%],further results
Cn1ccc(-c2sc3nc(-c4nccn4C)nc(N[C@@H]4CC[C@H](O)C4)c3c2C2=CC=CCC=C2)n1 (racemic),A (1-25% inhibition),C (51-75% inhibition),0,0,1 to 25,26 to 50,1 to 25,1 to 25,–,–,–
COCC(C)Nc1nc(-c2nccn2C)nc2sc(-c3ccccc3Cl)c(-c3cscn3)c12 (stereo not shown) [drawing 414],–,–,–,–,–,–,–,–,–,–,inhibition at 10 µM (AKT phosphorylation): 0%; inhibition at 10 µM (MAPK phosphorylation [1]): 26 to 50%; inhibition at 10 µM (MAPK phosphorylation [2]): 76 to 100%; inhibition at 10 µM (MAPK phosphorylation [3]): 76 to 100%
COCCNc1nc(-c2nccn2C)nc2sc(-c3cc(OC)ccc3Cl)c(-c3ccccc3)c12 [drawing 426],–,–,–,–,–,–,–,–,–,–,inhibition at 10 µM (MAPK phosphorylation [1]): 26 to 50%; inhibition at 10 µM (MAPK phosphorylation [2]): 51 to 75%; inhibition at 10 µM (MAPK phosphorylation [3]): 76 to 100%
COCCNC(=O)c1sc2nc(-c3nccn3C)nc(N[C@H]3C[C@@H](OC)C3)c2c1-c1ccccc1 [drawing 786],–,–,–,–,–,–,–,–,0,26 to 50,–
CO[C@H]1C[C@@H](Nc2nc(-c3nccn3C)nc3sc(C(=O)N4CCOCC4)c(-c4ccccc4)c23)C1 [drawing 787],–,–,–,–,–,–,–,–,1 to 25,1 to 25,–
COC1CCN(C(=O)c2sc3nc(-c4nccn4C)nc(N[C@H]4C[C@@H](OC)C4)c3c2-c2ccccc2)C1 (stereo partly shown) [drawing 788],–,–,–,–,–,–,–,–,0,0,–
CO[C@H]1CC[C@@H](Nc2nc(-c3nccn3C)nc3sc(C(=O)NC(C)C)c(-c4ccccc4)c23)C1 [drawing 789],–,–,–,–,–,–,–,–,1 to 25,51 to 75,–
COCCNC(=O)c1sc2nc(-c3nccn3C)nc(N[C@@H]3CC[C@H](OC)C3)c2c1-c1ccccc1 [drawing 790],–,–,–,–,–,–,–,–,1 to 25,51 to 75,–
CO[C@H]1CC[C@@H](Nc2nc(-c3nccn3C)nc3sc(C(=O)N4CCCC4)c(-c4ccccc4)c23)C1 [drawing 791],–,–,–,–,–,–,–,–,1 to 25,1 to 25,–
CO[C@H]1CC[C@@H](Nc2nc(-c3nccn3C)nc3sc(C(=O)N4CCOCC4)c(-c4ccccc4)c23)C1 [drawing 792],–,–,–,–,–,–,–,–,1 to 25,26 to 50,–
COc1cccc(-c2sc3nc(-c4nccn4C)nc(NC4CCC(OC)C4)c3c2-c2ccccc2)c1F (stereo not shown) [drawing 1018],D (76-100% inhibition),D (76-100% inhibition),51 to 75,26 to 50,–,–,–,51 to 75,–,–,"Rho-A + SOS: % inh. (Rho-A; with SOS): C (51-75% inhibition); Rho-A: % inh. (Rho-A; without SOS): C (51-75% inhibition); Rac-1 + SOS: % inh. (Rac-1; at 20 μM, with SOS): C (51-75% inhibition)"
COc1cccc(-c2sc3nc(-c4nccn4C)nc(NC4CCC(OC)C4)c3c2-c2ccccc2)c1F (stereo not shown) [drawing 1020],D (76-100% inhibition),B (26-50% inhibition),–,–,–,–,–,–,–,–,"KRas G12D mutant + SOS: % inh. (KRas G12D mutant; with SOS): C (51-75% inhibition); KRas G12D mutant: % inh. (KRas G12D mutant; without SOS): B (26-50% inhibition); Rho-A + SOS: % inh. (Rho-A; with SOS): A (1-25% inhibition); Rho-A: % inh. (Rho-A; without SOS): A (1-25% inhibition); Rac-1 + SOS: % inh. (Rac-1; at 20 μM, with SOS): B (26-50% inhibition); Rac-1: % inh. (Rac-1; at 20 μM, without SOS): C (51-75% inhibition)"
COC1CCC(Nc2nc(-c3nccn3C)nc3sc(-c4cccc5[nH]ncc45)c(-c4ccccc4)c23)C1 (stereo not shown) [drawing 1023],D (76-100% inhibition),B (26-50% inhibition),26 to 50,26 to 50,1 to 25,26 to 50,51 to 75,51 to 75,–,–,–
CO[C@H]1C[C@@H](Nc2nc(-c3ccccn3)nc3sccc23)C1 [drawing 1037],D (76-100% inhibition),C (51-75% inhibition),51 to 75,51 to 75,51 to 75,76 to 100,76 to 100,76 to 100,–,–,–
CO[C@H]1C[C@@H](Nc2nc(-c3nccn3C)nc3sccc23)C1 [drawing 1038],D (76-100% inhibition),C (51-75% inhibition),76 to 100,76 to 100,26 to 50,76 to 100,76 to 100,76 to 100,–,–,–
CO[C@H]1C[C@@H](Nc2nc(-c3nccn3C)nc3sc(-c4ccn(C)n4)c(-c4ccccc4)c23)C1.Cl [drawing 1040],D (76-100% inhibition),B (26-50% inhibition),51 to 75,26 to 50,51 to 75,51 to 75,76 to 100,51 to 75,–,–,–
CO[C@H]1C[C@H](Nc2nc(-c3nccn3C)nc3sc(-c4ccn(C)n4)c(-c4ccccc4)c23)C1 [drawing 1041],D (76-100% inhibition),B (26-50% inhibition),51 to 75,26 to 50,51 to 75,51 to 75,51 to 75,51 to 75,–,–,–
CN(C)CCOCCNc1nc(-c2nccn2C)nc2sc(-c3ccn(C)n3)c(-c3ccccc3)c12 [drawing 1042],D (76-100% inhibition),B (26-50% inhibition),51 to 75,26 to 50,51 to 75,51 to 75,51 to 75,51 to 75,–,–,–
Cn1ccc(-c2sc3nc(-c4nccn4C)nc(N[C@H]4C[C@@H](O)C4)c3c2-c2ccccc2)n1 [drawing 1043],A (1-25% inhibition),C (51-75% inhibition),0,0,26 to 50,26 to 50,1 to 25,1 to 25,–,–,–
CO[C@H]1CC[C@@H](Nc2nc(-c3nccn3C)nc3sc(-c4ccn(C(C)C)n4)c(C)c23)C1 [drawing 1054],D (76-100% inhibition),C (51-75% inhibition),51 to 75,51 to 75,76 to 100,76 to 100,51 to 75,51 to 75,–,–,–

# Source: patent US20250296938A1, “Compounds that Interact with the Ras Superfamily for the Treatment of Cancers, Inflammatory Diseases, Rasopathies, and Fibrotic Disease” (SHY Therapeutics, LLC, priority 2018, published 2025)
